Laboratory results from patent US20230404958A1, “AGENT FOR […] DAMAGE INDUCED BY RHABDOMYOLYSIS” (Niigata University, priority 2021, published 2023).

Legend:
[1] = system: rhabdomyolysis model mice; conditions: 400 mg/kg intraperitoneally; 24 hours after glycerol administration; vs normal saline control group; FIG. 1
Protocol: Serum potassium, which elevates when a renal function is reduced, was measured to verify whether the onset of renal injuries in rhabdomyolysis model mice is inhibited by cilastatin administration.
To C57BL/6 (male, aged 10-12 weeks), 5 mL/kg of a solution of 50% volume/volume glycerol (FUJIFILM Wako Pure Chemical Corporation)/PBS was prepared, and the solution was intramuscularly injected to the right hind limb, thereby constructing rhabdomyolysis nephropathy models. The administered animals were divided into 2 groups (6 mice per group), and intraperitoneally administered with a) 400 mg/kg (diluted in 100 μL of normal saline) of cilastatin (Sigma-Aldrich Inc.) or b) 100 μL of normal saline as a control.
The serum was stored at −80° C. until analysis and the measurement of serum potassium was conducted by Oriental Yeast Co., Ltd.

megalin (binding to α1M) = megalin (binding to α1M) (Rattus norvegicus, UniProt P98158); conditions: 1 mg/200 μL of cilastatin injected into buffer in advance; FIG. 2-2
Excerpt: (§1) Binding specificity between megalin and each ligand (myoglobin, α1M, and Hx) and the possible binding inhibition by cilastatin were verified using the quartz crystal microbalance (QCM) method by reference to the method described in PTL 2.

[2] = system: uptake of each ligand into kidney tissues through megalin; conditions: cilastatin sodium 400 mg/kg intraperitoneally, urine collected 3 hours
Protocol: Cilastatin was administered to mice and changes in concentrations of each ligand in urine were observed.
Five mice (male, aged 12 weeks C57BL/6) were intraperitoneally administered with 400 mg/kg (diluted in 100 μL of normal saline, cilastatin-treated group) of cilastatin sodium (Sigma-Aldrich Japan K.K., C5743), and then put in a metabolic cage for 3 hours to collect urine, and the urines of 5 mice were combined. Additionally, 100 μL of normal saline was administered to another group of 5 mice (control group), and the same experiment as above was conducted.
Proteins were isolated from the obtained urine samples by electrophoresis (SDS-polyacrylamide gel), reductively alkylated (using dithiothreitol and iodoacetamide), digested with trypsin, and the obtained peptides were extracted to obtain a solid.
To the obtained solid, 15 μL of 0.3% formic acid (FA) was added, shaken for 5 minutes, sonicated for 1 minute, and shaken again for 5 minutes. The resultant mixture was spun down, applied to a membrane filter having a pore diameter of 0.45 μm (ULtra free-MC, HV, 0.45 μm, Millipore), centrifuged at 10,000 rpm for 5 minutes, and the sample passed through the filter was subjected to LCMS analysis.
AnaLyst® TF1.6 (AB SCIEX) was used as an LCMS/MS data acquisition and analysis software, and the obtained raw data were converted to a peak list file (mgf file format), whereby MS/MS Ion Search (MIS search) was conducted using Matrix Science Mascot daemon, Mascot server 2.2.1. The sequence data base used was Uniprot, Swiss-Prot. Significance threshold was set to 0.05 (false discovery rate of less than 5%), and the proteins having 2 or more peptides exceeding the identification standard were listed as identified proteins.
Raw data were acquired 2 times per sample at LCMS to cover the issue of analysis reproducibility at LCMS, and the peak list files obtained from the 2 runs were combined and analyzed using Mascot (Ohara et al., 2018, PLoS One, vol. 13, 1, e0204160).
To the proteins identified in common in 2 groups when compared, the spectral count method was used, which is a label-free comparative, semiquantitative analysis method utilizing a principle that a large number of peptide fragments will be identified in those expressed at high levels, resulting in the increase in the number of MS/MS. In other words, the proteins identified in both of the cilastatin-treated group and control group were calculated for an SpC/L ratio (spectral abundance factor: SAF) of the cilastatin-treated group/control group, and the proteins having an SpC/L ratio of 2.0 or more were listed as the proteins abundant in urine of the cilastatin-treated group.

[3] = system: myoglobin uptake into kidney tissues; conditions: rhabdomyolysis model mice; 24 hours after glycerol dosing; anti-myoglobin immunostaining; FIG. 5
Protocol: In line with Test Example 1, 50% glycerol was administered to C57BL/6 (male, aged 10-12 weeks), thereby constructing rhabdomyolysis model mice.
Twenty-four hours after glycerol dosing, a portion containing a kidney pedicle was sliced to 3 mm thickness from the right kidney and fixed with 4% paraformaldehyde phosphate buffer.

[4] = biological target: megalin (binding to myoglobin) (Rattus norvegicus, UniProt P98158); conditions: 1 mg of cilastatin injected into buffer (200 μL) in advance; FIG. 2-1
Chain of megalin (binding to myoglobin) (P98158 26-4660): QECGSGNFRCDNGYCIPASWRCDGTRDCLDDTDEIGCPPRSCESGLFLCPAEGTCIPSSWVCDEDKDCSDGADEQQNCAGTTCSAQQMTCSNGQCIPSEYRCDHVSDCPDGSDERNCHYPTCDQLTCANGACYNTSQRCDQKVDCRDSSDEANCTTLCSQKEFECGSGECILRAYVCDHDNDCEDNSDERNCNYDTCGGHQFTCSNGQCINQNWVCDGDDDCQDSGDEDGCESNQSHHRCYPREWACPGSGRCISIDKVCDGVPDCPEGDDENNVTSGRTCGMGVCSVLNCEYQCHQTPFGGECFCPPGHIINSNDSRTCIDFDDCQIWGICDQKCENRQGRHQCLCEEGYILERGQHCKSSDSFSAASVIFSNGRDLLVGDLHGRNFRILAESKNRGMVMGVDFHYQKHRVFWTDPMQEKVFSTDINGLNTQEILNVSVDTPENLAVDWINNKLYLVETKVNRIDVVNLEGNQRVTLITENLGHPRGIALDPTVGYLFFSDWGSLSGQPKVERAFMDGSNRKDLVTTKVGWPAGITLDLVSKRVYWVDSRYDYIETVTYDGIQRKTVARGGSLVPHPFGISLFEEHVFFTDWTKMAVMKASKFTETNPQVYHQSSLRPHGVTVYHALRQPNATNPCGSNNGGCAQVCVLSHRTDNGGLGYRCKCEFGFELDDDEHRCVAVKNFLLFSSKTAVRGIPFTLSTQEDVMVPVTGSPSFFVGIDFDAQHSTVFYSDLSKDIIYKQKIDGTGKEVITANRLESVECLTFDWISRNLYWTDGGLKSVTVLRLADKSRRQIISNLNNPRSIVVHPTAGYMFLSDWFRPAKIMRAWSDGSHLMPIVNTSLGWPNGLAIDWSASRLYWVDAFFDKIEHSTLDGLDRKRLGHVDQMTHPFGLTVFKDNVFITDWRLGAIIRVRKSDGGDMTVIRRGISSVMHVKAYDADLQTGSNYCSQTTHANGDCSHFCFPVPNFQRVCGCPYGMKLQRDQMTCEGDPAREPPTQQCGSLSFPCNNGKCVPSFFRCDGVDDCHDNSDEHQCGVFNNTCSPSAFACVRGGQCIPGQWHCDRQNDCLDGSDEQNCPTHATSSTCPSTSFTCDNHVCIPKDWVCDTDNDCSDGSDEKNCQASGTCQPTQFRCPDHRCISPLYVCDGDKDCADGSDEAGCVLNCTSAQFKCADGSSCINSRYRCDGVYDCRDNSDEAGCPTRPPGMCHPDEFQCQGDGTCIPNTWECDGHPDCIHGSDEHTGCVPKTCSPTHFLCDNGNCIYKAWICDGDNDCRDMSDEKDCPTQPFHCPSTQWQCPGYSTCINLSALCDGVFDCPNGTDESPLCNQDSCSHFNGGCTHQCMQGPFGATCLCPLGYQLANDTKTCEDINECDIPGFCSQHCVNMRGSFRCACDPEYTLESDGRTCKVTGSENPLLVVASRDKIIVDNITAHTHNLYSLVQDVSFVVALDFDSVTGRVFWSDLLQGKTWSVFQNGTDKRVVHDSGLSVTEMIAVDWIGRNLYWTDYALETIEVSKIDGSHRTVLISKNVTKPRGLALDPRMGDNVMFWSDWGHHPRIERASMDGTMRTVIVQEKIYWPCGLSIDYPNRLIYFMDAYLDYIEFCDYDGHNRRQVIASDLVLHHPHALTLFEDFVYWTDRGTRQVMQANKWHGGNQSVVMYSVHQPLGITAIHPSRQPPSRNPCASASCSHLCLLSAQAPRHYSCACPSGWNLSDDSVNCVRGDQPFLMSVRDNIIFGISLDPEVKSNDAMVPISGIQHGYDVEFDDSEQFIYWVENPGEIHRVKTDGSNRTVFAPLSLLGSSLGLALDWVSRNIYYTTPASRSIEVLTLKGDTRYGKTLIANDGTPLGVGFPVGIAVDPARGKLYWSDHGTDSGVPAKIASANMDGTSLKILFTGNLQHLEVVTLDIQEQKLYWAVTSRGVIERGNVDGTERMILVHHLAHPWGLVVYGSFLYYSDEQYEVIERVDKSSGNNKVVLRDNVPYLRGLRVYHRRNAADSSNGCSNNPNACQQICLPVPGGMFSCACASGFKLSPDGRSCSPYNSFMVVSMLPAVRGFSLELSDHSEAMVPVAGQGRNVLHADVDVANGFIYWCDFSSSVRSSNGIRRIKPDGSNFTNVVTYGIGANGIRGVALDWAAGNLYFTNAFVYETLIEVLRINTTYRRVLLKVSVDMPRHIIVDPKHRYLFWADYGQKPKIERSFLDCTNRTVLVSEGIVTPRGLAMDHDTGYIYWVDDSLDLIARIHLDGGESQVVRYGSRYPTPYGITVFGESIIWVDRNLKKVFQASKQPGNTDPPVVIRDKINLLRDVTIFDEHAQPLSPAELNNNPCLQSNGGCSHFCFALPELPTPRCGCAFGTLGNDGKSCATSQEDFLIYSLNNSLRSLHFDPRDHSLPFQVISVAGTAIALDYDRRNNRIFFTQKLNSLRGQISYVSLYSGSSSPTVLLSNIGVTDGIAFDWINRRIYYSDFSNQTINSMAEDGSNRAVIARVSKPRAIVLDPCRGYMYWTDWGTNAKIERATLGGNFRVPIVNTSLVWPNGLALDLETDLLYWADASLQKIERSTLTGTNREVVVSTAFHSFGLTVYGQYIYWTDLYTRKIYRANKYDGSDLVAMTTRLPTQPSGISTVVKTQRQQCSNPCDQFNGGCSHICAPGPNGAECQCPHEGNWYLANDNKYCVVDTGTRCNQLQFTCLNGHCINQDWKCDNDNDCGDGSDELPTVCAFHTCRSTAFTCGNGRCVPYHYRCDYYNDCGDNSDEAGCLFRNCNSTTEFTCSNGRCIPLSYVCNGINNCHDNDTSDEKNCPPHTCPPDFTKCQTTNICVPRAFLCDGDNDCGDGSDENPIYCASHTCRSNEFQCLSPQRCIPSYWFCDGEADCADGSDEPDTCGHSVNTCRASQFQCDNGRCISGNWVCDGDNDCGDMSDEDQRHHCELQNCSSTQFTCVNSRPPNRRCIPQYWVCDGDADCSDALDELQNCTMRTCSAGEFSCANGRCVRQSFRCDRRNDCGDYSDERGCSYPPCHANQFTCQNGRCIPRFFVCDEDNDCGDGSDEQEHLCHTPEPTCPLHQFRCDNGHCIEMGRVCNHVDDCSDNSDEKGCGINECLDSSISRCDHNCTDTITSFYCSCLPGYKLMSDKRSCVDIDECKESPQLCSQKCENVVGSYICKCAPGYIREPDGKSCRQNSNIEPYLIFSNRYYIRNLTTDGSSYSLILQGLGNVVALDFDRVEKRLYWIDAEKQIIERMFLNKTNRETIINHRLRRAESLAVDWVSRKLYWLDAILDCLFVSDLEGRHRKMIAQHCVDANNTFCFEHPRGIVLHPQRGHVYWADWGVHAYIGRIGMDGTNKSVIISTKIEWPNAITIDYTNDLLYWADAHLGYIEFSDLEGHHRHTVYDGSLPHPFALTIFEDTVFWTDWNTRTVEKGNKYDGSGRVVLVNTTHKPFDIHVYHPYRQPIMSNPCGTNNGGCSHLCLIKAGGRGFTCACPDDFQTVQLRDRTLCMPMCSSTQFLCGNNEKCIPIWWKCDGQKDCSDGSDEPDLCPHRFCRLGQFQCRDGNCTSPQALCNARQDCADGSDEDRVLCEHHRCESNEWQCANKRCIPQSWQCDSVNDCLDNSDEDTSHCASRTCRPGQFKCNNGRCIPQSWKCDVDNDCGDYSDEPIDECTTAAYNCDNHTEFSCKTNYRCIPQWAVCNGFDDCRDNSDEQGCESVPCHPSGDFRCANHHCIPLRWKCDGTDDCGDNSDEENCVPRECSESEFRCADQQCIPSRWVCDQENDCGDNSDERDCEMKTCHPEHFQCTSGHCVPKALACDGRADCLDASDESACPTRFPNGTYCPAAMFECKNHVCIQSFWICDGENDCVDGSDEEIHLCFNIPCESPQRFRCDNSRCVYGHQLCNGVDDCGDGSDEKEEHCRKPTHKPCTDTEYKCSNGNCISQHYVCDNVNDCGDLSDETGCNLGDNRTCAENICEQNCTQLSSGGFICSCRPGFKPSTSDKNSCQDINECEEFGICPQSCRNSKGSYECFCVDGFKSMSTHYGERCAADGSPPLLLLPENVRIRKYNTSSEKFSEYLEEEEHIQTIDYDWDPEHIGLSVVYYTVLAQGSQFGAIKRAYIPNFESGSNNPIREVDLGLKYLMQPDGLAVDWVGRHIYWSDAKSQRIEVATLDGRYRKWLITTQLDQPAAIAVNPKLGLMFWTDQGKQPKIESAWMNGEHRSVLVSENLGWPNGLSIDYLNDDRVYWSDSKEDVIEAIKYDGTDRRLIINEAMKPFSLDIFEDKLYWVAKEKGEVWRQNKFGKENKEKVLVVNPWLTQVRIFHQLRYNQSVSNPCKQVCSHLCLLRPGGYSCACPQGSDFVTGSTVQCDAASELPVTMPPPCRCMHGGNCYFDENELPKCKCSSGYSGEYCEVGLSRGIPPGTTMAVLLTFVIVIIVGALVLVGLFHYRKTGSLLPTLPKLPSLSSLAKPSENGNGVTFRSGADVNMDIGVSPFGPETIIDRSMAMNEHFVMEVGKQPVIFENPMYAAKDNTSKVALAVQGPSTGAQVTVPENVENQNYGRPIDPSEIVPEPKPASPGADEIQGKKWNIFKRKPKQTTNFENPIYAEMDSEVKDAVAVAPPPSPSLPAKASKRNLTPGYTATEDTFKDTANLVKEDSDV
Excerpt: as §1
(§2) For the ligands to be verified, myoglobin (LifeSpan Biosciences Inc., Rat […] Native Protein, LS-G11201) and Hx (Sino Biological Inc., Rat Hemopexin/HPX protein (His Tag 81025-R08H)) were used. […]
(§3) After each of the ligand- or BSA-immobilized quartz crystal sensor was mounted in the measurement instrument AFFINIX® Q8 (Initium Inc.) and the frequency was confirmed to be stable, 8 μL of a 0.1 mg/mL solution of megalin purified from Sprague-Dawley (SD) rat kidneys according to the method of Orlando et al. was injected and frequency was measured with time.
(§4) More specifically, the megalin solution was reacted with each of the ligand-immobilized quartz crystal sensors placed under the water surface with 200 μL of buffer, and the frequency was measured.
(§5) Additionally, 1 mg of cilastatin was injected into buffer in advance, each of the ligand-immobilized quartz crystal sensors was mounted in the measurement instrument, and after the frequency was confirmed to be stable, the megalin solution was injected and frequency was measured with time, whereby the antagonistic activity of cilastatin against the binding of each ligand to megalin was analyzed. […]

megalin (binding to Hx) = megalin (binding to Hx) (Rattus norvegicus, UniProt P98158); conditions: 1 mg of cilastatin injected into buffer (200 μL) in advance; FIG. 2-1
Chain of megalin (binding to Hx) (P98158 26-4660): as above
Excerpt: as §1, §2, §3, §4, §5

[5] = cilastatin-treated group/control group, pooled from 5 mice

Chain of megalin (binding to α1M) (P98158 26-4660): as above

CC1(C)C[C@@H]1C(=O)N/C(=C\CCCCSC[C@H](N)C(=O)O)C(=O)O [cilastatin, (Z)-7-[[(R)-2-Amino-2-carboxyethyl]thio]-2-[[[(S)-2,2-dimethylcyclopropyl]carbonyl]amino]-2-heptenoic acid]
serum potassium [1]: lower values than the control group
drop of quartz crystal signals on adding α1M to megalin-immobilized sensor (megalin-α1M binding) (megalin (binding to α1M)): inhibited
number of urinary proteins having an SpC/L ratio of the cilastatin-treated group/control group of 2.0 or more [2]: 63 kinds
SpC/L ratio, urinary Albumin [2, 5]: 1.10
SpC/L ratio, urinary Clusterin [2, 5]: 0.73
SpC/L ratio, urinary Transthyretin [2, 5]: 1.00
SpC/L ratio, urinary Vitamin D-binding protein [2, 5]: 0.80
amounts of myoglobin taken up into kidney tissues [3]: reduced
drop of quartz crystal signals on adding megalin to myoglobin-immobilized sensor (megalin-myoglobin binding) [4]: inhibited
drop of quartz crystal signals on adding megalin to Hx-immobilized sensor (megalin-Hx binding) (megalin (binding to Hx)): inhibited
